Results: patent US20240391926A1, “SPIROINDOLINONE COMPOUNDS AS Kv1.3 POTASSIUM SHAKER CHANNEL BLOCKERS” (D.E. Shaw Research, LLC, priority 2021, published 2024)
pIC50: −log10 of the molar value.

These compounds were tested against T1, Kv1.3 potassium channel (Homo sapiens, UniProt P22001) (assay: Kv1.3 potassium channel blocker activity, automated whole-cell patch clamp (Patchliner) in CHO-K1 cells stably expressing Kv1.3). Details: 30 nM-100 μM.
T1 construct: expressed in transfected cells
Type: cell-based
Protocol: This assay is used to evaluate the disclosed compounds' activities as Kv1.3 potassium channel blockers.
CHO-K1 cells stably expressing Kv1.3 were grown in DMEM containing 10% heat-inactivated FBS, 1 mM sodium pyruvate, 2 mM L-glutamine, and G418 (500 μg/ml). Cells were grown in culture flasks at 37° C. in a 5% CO2-humidified incubator.
The cells were bathed in an extracellular solution containing 140 mM NaCl, 4 mM KCl, 2 mM CaCl2), 1 mM MgCl2, 5 mM glucose, 10 mM HEPES; pH adjusted to 7.4 with NaOH; 295-305 mOsm. The internal solution contained 50 mM KCl, 10 mM NaCl, 60 mM KF, 20 mM EGTA, 10 mM HEPES; pH adjusted to 7.2 with KOH; 285 mOsm. All compounds were dissolved in DMSO at 30 mM. Compound stock solutions were freshly diluted with external solution to concentrations of 30 nM, 100 nM, 300 nM, 1 μM, 3 μM, 10 μM, 30 μM and 100 μM. The highest content of DMSO (0.3%) was present in 100 μM.
The currents were evoked by applying 100 ms depolarizing pulses from −90 mV (holding potential) to +40 mV were applied with 0.1 Hz frequency. Control (compound-free) and compound pulse trains for each compound concentration applied contained 20 pulses. 10-second breaks were used between pulse trains (see Table A below).
Whole-cell current recordings and compound application were enabled by means of an automated patch clamp platform Patchliner (Nanion Technologies GmbH). EPC 10 patch clamp amplifier (HEKA Elektronik Dr. Schulze GmbH) along with Patchmaster software (HEKA Elektronik Dr. Schulze GmbH) was used for data acquisition. Data were sampled at 10 kHz without filtering. Passive leak currents were subtracted online using a P/4 procedure (HEKA Elektronik Dr. Schulze GmbH). Increasing compound concentrations were applied consecutively to the same cell without washouts in between. Total compound incubation time before the next pulse train was not longer than 10 seconds. Peak current inhibition was observed during compound equilibration.
AUC and peak values were obtained with Patchmaster (HEKA Elektronik Dr. Schulze GmbH). To determine IC50, the last single pulse in the pulse train corresponding to a given compound concentration was used. Obtained AUC and peak values in the presence of compound were normalized to control values in the absence of compound. Using Origin (OridinLab), IC50 was derived from data fit to Hill equation: Icompound/Icontrol=(100−A)/(1+([compound]/IC50)nH)+A, where IC50 value is the concentration at which current inhibition is half-maximal, [compound] is the applied compound concentration, A is the fraction of current that is not blocked and nH is the Hill coefficient.

T1 sequence (P22001 whole entry): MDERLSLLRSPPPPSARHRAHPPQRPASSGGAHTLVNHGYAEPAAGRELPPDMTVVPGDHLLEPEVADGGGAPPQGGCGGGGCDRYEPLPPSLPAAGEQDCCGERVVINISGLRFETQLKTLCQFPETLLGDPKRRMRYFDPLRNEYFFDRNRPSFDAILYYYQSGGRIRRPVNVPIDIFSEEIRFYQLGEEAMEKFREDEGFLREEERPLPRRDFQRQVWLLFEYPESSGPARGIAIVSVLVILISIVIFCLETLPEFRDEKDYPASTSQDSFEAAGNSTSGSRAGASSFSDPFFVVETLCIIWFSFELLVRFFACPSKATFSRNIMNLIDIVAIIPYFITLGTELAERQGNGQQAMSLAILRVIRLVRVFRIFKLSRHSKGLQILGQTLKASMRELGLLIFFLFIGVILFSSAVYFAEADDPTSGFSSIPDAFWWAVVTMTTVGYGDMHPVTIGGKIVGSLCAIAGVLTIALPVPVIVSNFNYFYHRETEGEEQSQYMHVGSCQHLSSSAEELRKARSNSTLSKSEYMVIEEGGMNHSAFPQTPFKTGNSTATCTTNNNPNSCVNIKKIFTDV

SMILES	pIC50
C[C@@H]1CN(C(=O)CO)CC12C(=O)Nc1cc(Cl)c(Cl)cc12 (single isomer, unassigned; diastereoisomer 1) [Compound 130, 5,6-dichloro-1′-(2-hydroxyacetyl)-4′-methylspiro[indoline-3,3′-pyrrolidin]-2-one diastereoisomer 1]	> 4.52
C[C@H]1N(C(=O)CO)CCC12C(=O)Nc1cc(Cl)c(Cl)cc12 (single isomer, unassigned; diastereoisomer 2) [Compound 134, 5,6-dichloro-1′-(2-hydroxyacetyl)-2′-methylspiro[indoline-3,3′-pyrrolidin]-2-one diastereoisomer 2]	> 5.00
O=C([C@H]1[C@@H]2CN[C@H]1C2)N1CC[C@]2(C1)C(=O)Nc1cc(Cl)c(Cl)cc12 (single isomer, unassigned; isomer 1) [Compound 57]	> 5.52
C[C@H]1C[C@]2(CN1C(=O)CO)C(=O)Nc1cc(Cl)c(Cl)cc12 (single isomer, unassigned; isomer 1) [Compound 123, 5,6-dichloro-1′-(2-hydroxyacetyl)-5′-methyl-1H-spiro[indole-3,3′-pyrrolidin]-2-one isomer 1]	> 4.52
O=C(N1CC[C@]2(C1)C(=O)Nc1cc(Cl)c(Cl)cc12)[C@@]1(O)CCNC1 (single isomer, unassigned; isomer 2) [Compound 31]	> 5.52
O=C([C@@H]1CC[C@@H](O)C1)N1CC[C@]2(C1)C(=O)Nc1cc(Cl)c(Cl)cc12 (single isomer, unassigned; isomer 2) [Compound 64]	> 5.52
O=C1CC(C(=O)N2CC[C@]3(C2)C(=O)Nc2cc(Cl)c(Cl)cc23)CN1 (single isomer, unassigned; isomer 2) [Compound 75]	> 5.52
O=C([C@@H]1CC[C@@](O)(CO)C1)N1CC[C@]2(C1)C(=O)Nc1cc(Cl)c(Cl)cc12 (single isomer, unassigned; isomer 2) [Compound 96]	> 5.52
O=C([C@@H]1CC[C@](O)(CO)C1)N1CC[C@]2(C1)C(=O)Nc1cc(Cl)c(Cl)cc12 (single isomer, unassigned; isomer 2) [Compound 98]	> 5.52
O=C([C@@H]1CC[C@@H](CO)C1)N1CC[C@]2(C1)C(=O)Nc1cc(Cl)c(Cl)cc12 (single isomer, unassigned; isomer 2) [Compound 100]	> 5.52
O=C([C@H]1CC[C@H](O)[C@@H](O)C1)N1CC[C@]2(C1)C(=O)Nc1cc(Cl)c(Cl)cc12 (single isomer, unassigned; isomer 2) [Compound 108]	> 5.52
C[C@@H]1C[C@@]2(CN1C(=O)CO)C(=O)Nc1cc(Cl)c(Cl)cc12 (single isomer, unassigned; isomer 2) [Compound 124, 5,6-dichloro-1′-(2-hydroxyacetyl)-5′-methyl-1H-spiro[indole-3,3′-pyrrolidin]-2-one isomer 2]	> 5.00
O=C([C@H]1CC[C@@H](O)C1)N1CC[C@]2(C1)C(=O)Nc1cc(Cl)c(Cl)cc12 (single isomer, unassigned; isomer 3) [Compound 65]	> 5.52
O=C([C@@H]1CC[C@H](O)C1)N1CC[C@]2(C1)C(=O)Nc1cc(Cl)c(Cl)cc12 (single isomer, unassigned; isomer 4) [Compound 66]	> 5.52
C[C@H]1C[C@@]2(CN1C(=O)CO)C(=O)Nc1cc(Cl)c(Cl)cc12 (single isomer, unassigned; isomer 4) [Compound 126, 5,6-dichloro-1′-(2-hydroxyacetyl)-5′-methyl-1H-spiro[indole-3,3′-pyrrolidin]-2-one isomer 4]	> 5.00
CN(C)CC(=O)N1CCC2(C1)C(=O)Nc1cc(Cl)c(Cl)cc12 (stereo not drawn) [Compound 7, 5,6-dichloro-1′-(dimethylglycyl)spiro[indoline-3,3′-pyrrolidin]-2-one]	> 5.52

Further lines, results first:

pIC50	SMILES
> 5.52	O=C([C@H]1CC[C@H](CO)C1)N1CC[C@]2(C1)C(=O)Nc1cc(Cl)c(Cl)cc12 (relative stereo) [Compound 99, (3S)-5,6-dichloro-1′-[(1R,3R)-rel-3-(hydroxymethyl)cyclopentanecarbonyl]-1H-spiro[indole-3,3′-pyrrolidin]-2-one isomer 1]
> 6.00	O=C(C1C[C@H](O)[C@@H](O)C1)N1CC[C@]2(C1)C(=O)Nc1cc(Cl)c(Cl)cc12 (relative stereo) [Compound 106]
> 6.00	O=C([C@@H]1C[C@H]1CO)N1CC[C@]2(C1)C(=O)Nc1cc(Cl)c(Cl)cc12 (relative stereo) [Compound 150, (S)-5,6-dichloro-1′-(1R,2R)-rel-2-(hydroxymethyl)cyclopropane-1-carbonyl)spiro[indoline-3,3′-pyrrolidin]-2-one]
> 6.00	O=C([C@@H]1C[C@@H]1CO)N1CC[C@]2(C1)C(=O)Nc1cc(Cl)c(Cl)cc12 (relative stereo) [Compound 151, (S)-5,6-dichloro-1′-(1R,2S)-rel-2-(hydroxymethyl)cyclopropane-1-carbonyl)spiro[indoline-3,3′-pyrrolidin]-2-one]
> 6.00	O=C([C@@H]1CNC[C@@H]1O)N1CC[C@]2(C1)C(=O)Nc1cc(Cl)c(Cl)cc12 (single isomer, unassigned) [Compound 1]
> 6.00	O=C([C@H]1CNC[C@@H]1O)N1CC[C@]2(C1)C(=O)Nc1cc(Cl)c(Cl)cc12 (single isomer, unassigned) [Compound 4]
> 5.52	O=C1Nc2cc(Cl)c(Cl)cc2[C@]12CCN(c1ccn[nH]1)C2 (single isomer, unassigned) [Compound 153]
> 6.00	NC(=O)N1CC[C@]2(C1)C(=O)Nc1cc(Cl)c(Cl)cc12 (single isomer, unassigned) [Compound 154]
> 5.52	NC(=O)N1CC[C@@]2(C1)C(=O)Nc1cc(Cl)c(Cl)cc12 (single isomer, unassigned) [Compound 155]
> 5.52	C[C@@H]1N(C(=O)CO)CCC12C(=O)Nc1cc(Cl)c(Cl)cc12 (single isomer, unassigned; diastereoisomer 1) [Compound 133, 5,6-dichloro-1′-(2-hydroxyacetyl)-2′-methylspiro[indoline-3,3′-pyrrolidin]-2-one diastereoisomer 1]
> 6.00	C[C@H]1CN(C(=O)CO)CC12C(=O)Nc1cc(Cl)c(Cl)cc12 (single isomer, unassigned; diastereoisomer 2) [Compound 131, 5,6-dichloro-1′-(2-hydroxyacetyl)-4′-methylspiro[indoline-3,3′-pyrrolidin]-2-one diastereoisomer 2]
> 6.00	O=C(N1CC[C@]2(C1)C(=O)Nc1cc(Cl)c(Cl)cc12)[C@]1(F)CCNC1 (single isomer, unassigned; isomer 1) [Compound 28]
> 6.00	O=C(N1CC[C@]2(C1)C(=O)Nc1cc(Cl)c(Cl)cc12)C1(O)CCNC1 (single isomer, unassigned; isomer 1) [Compound 30]
> 6.00	O=C1Nc2cc(Cl)c(Cl)cc2[C@]12CCN(C(=O)[C@]13CNCC1C3)C2 (single isomer, unassigned; isomer 1) [Compound 32]
> 6.00	O=C1C[C@H](C(=O)N2CC[C@]3(C2)C(=O)Nc2cc(Cl)c(Cl)cc23)CN1 (single isomer, unassigned; isomer 1) [Compound 74]
> 6.00	O=C([C@@H]1CC[C@H](O)[C@@H](O)C1)N1CC[C@]2(C1)C(=O)Nc1cc(Cl)c(Cl)cc12 (single isomer, unassigned; isomer 1) [Compound 103]
> 6.00	O=C([C@H]1CC[C@@H](O)[C@H](O)C1)N1CC[C@]2(C1)C(=O)Nc1cc(Cl)c(Cl)cc12 (single isomer, unassigned; isomer 1) [Compound 107]
> 6.00	O=C(N1CC[C@]2(C1)C(=O)Nc1cc(Cl)c(Cl)cc12)C12CNCC1C2 (single isomer, unassigned; isomer 2) [Compound 33]
> 6.00	O=C([C@@H]1[C@@H]2CN[C@H]1C2)N1CC[C@]2(C1)C(=O)Nc1cc(Cl)c(Cl)cc12 (single isomer, unassigned; isomer 2) [Compound 58]
> 6.00	C[C@@H]1C[C@]2(CN1C(=O)CO)C(=O)Nc1cc(Cl)c(Cl)cc12 (single isomer, unassigned; isomer 3) [Compound 125, 5,6-dichloro-1′-(2-hydroxyacetyl)-5′-methyl-1H-spiro[indole-3,3′-pyrrolidin]-2-one isomer 3]
